According to patent US8076338B2, “Kinase modulators and methods of use” (Exelixis, Inc., priority 2004, dated 2011):
pIC50: −log10 of the molar value. Read-outs that look alike come from different tables or passages of the source.

Columns and labels:
AktK = AktK (Homo sapiens, UniProt P31749); experiment: Luciferase-coupled chemiluminescence kinase assay (ATP consumption); type: biochemical; conditions: read-out: AKT-1 IC50
Outline: (§1)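 Enzyme at 2.5-5 nM was preincubated 30 min at room temperature with compound in Tris pH 7.5, MgCl2, TX-100, DTT, then reacted with ATP for 3 h at ambient temperature. Remaining ATP was quantified by luciferase-luciferin chemiluminescence, with consumption kept at 25-60%; […].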

p70S6K = p70S6K (Homo sapiens, UniProt P23443); experiment: as above; type: biochemical
Outline: as §1

Chain of p70S6K (P23443 whole entry): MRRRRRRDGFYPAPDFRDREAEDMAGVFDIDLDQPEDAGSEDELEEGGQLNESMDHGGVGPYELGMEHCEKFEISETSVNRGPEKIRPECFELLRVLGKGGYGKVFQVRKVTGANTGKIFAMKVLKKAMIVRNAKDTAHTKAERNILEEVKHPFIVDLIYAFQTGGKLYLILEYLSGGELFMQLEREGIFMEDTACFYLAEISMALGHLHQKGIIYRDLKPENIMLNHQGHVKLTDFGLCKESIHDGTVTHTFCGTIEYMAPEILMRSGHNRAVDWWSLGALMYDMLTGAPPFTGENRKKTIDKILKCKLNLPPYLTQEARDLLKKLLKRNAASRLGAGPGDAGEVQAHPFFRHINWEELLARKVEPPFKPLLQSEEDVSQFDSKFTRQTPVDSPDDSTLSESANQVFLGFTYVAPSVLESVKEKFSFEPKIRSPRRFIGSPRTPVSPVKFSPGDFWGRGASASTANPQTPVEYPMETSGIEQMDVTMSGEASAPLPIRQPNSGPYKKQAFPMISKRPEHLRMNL
Chain of AktK (P31749 whole entry): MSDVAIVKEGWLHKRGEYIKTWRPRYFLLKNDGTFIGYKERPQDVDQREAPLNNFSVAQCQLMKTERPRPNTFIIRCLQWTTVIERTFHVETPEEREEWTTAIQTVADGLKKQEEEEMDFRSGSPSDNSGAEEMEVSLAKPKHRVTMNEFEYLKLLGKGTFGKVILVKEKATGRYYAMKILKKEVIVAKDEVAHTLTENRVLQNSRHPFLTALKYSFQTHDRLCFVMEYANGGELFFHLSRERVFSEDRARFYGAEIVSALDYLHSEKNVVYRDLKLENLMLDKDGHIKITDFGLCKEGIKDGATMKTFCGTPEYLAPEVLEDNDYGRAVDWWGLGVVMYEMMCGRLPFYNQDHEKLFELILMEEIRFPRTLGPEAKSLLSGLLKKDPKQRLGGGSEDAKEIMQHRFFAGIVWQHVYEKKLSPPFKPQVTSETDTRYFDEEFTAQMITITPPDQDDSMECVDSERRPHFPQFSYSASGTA

Row | Structure (SMILES) | pIC50 (AktK; Table 1, class symbols per key) | pIC50 (p70S6K; Table 1, class symbols per key) | pIC50 (AktK) | pIC50 (p70S6K)
1 | Cc1ccc(OCC(F)(CF)CF)cc1N1CCN(c2ncnc3[nH]nc(Br)c23)CC1 [Entry 263, 3-bromo-4-[4-(5-{[2,3-difluoro-2-(fluorometh-yl)propyl]oxy}-2-methylphenyl)piperazin-1-yl]-1H-pyrazolo[3,4-d]pyrimidine] | > 7.00 | > 7.00 |  | 
2 | Cc1ccc(-c2ccccc2OCCN2CCOCC2)cc1N1CCN(c2ncnc3[nH]nc(Br)c23)CC1 [Entry 279, 3-bromo-4-(4-{4-methyl-2′-[(2-morpholin-4-ylethyl)oxy]biphenyl-3-yl}piperazin-1-yl)-1H-pyrazolo[3,4-d]pyrimidine] | > 7.00 | > 7.00 |  | 
3 | Cc1ccc(Cl)cc1N1CCN(c2ncnc3[nH]nc(/C=C/C(=O)O)c23)CC1 [Entry 369, (2E)-3-{4-[4-(5-chloro-2-methylphenyl)piperazin-1-yl]-1H-pyrazolo[3,4-d]pyrimidin-3-yl}prop-2-enoic acid] |  |  | 6.00 to 7.00 | > 7.00
4 | CCc1n[nH]c2ncnc(N3CCN(c4ccccc4)CC3)c12 [Entry 98, 3-ethyl-4-(4-phenylpiperazin-1-yl)-1H-pyrazolo[3,4-d]pyrimidine] | ≤ 5.00 | 6.00 to 7.00 |  | 
5 | CCc1n[nH]c2ncnc(N3CCN(c4cccc(OCCN(CC)CC)c4C)CC3)c12 [Entry 32, N,N-diethyl-2-({3-[4-(3-ethyl-1H-pyrazolo[3,4-d]pyrimidin-4-yl)piperazin-1-yl]-2-methylphenyl}oxy)ethanamine] | 5.00 to 6.00 | 6.00 to 7.00 |  | 
6 | Cc1ccc(Cl)cc1N1CCN(c2ncnc3[nH]nc(Cc4ccccc4)c23)CC1 [Entry 354, 4-[4-(5-chloro-2-methylphenyl)piperazin-1-yl]-3-(phenylmethyl)-1H-pyrazolo[3,4-d]pyrimidine] |  |  | 5.00 to 6.00 | 6.00 to 7.00
7 | Cc1ccc(C(=O)NCc2ccccc2)cc1N1CCN(c2ncnc3[nH]nc(Br)c23)C[C@@H]1C [Entry 178, 3-[(2S)-4-(3-bromo-1H-pyrazolo[3,4-d]pyrimidin-4-yl)-2-methylpiperazin-1-yl]-4-methyl-N-(phenylmethyl)benzamide] | 5.00 to 6.00 | > 7.00 |  | 
8 | Cc1ccc(-c2n[nH]c3ncnc(N4CCN(c5cc(Cl)ccc5C)CC4)c23)cc1 [Entry 341, 4-[4-(5-chloro-2-methylphenyl)piperazin-1-yl]-3-(4-methylphenyl)-1H-pyrazolo[3,4-d]pyrimidine] |  |  | 5.00 to 6.00 | 5.00 to 6.00
9 | c1ccc(N2CCN(c3ncnc4[nH]ccc34)CC2)cc1 [Entry 295, 4-(4-phenylpiperazin-1-yl)-7H-pyrrolo[2,3-d]pyrimidine] |  |  | ≤ 5.00 | 6.00 to 7.00
10 | Cc1c(NCCN2CCCC2)cc(OCC(F)(CF)CF)cc1N1CCN(c2ncnc3[nH]nc(C#CCO)c23)CC1 [Entry 288, 3-[4-(4-{5-{[2,3-difluoro-2-(fluoromethyl)pro-pyl]oxy}-2-methyl-3-[(2-pyrrolidin-1-ylethyl)a-mino]phenyl}piperazin-1-yl)-1H-pyrazolo[3,4-d]pyrimidin-3-yl]prop-2-yn-1-ol] | > 7.00 | > 7.00 |  | 
11 | CCc1n[nH]c2ncnc(N3CCN(c4cc(Cl)cc(OCCN5CCCCC5)c4C)CC3)c12 [Entry 17, 4-(4-{5-chloro-2-methyl-3-[(2-piperidin-1-ylethyl)oxy]phenyl}piperazin-1-yl)-3-ethyl-1H-pyrazolo[3,4-d]pyrimidine] | 5.00 to 6.00 | > 7.00 |  | 
12 | CCN(CC)CCNc1cc(Cl)cc(N2CCN(c3ncnc4[nH]nc(Br)c34)CC2)c1C [Entry 28, N′-{3-[4-(3-bromo-1H-pyrazolo[3,4-d]pyrimidin-4-yl)piperazin-1-yl]-5-chloro-2-methylphenyl}-N,N-diethylethane-1,2-diamine] | > 7.00 | > 7.00 |  | 
13 | Cc1ccccc1N1CCN(c2ncnc3[nH]ccc23)CC1 [Entry 301, 4-[4-(2-methylphenyl)piperazin-1-yl]-7H-pyrrolo[2,3-d]pyrimidine] |  |  | ≤ 5.00 | 6.00 to 7.00
14 | CCc1n[nH]c2ncnc(N3CCN(c4ncccc4C(N)=O)CC3)c12 [Entry 115, 2-[4-(3-ethyl-1H-pyrazolo[3,4-d]pyrimidin-4-yl)piperazin-1-yl]pyridine-3-carboxamide] | ≤ 5.00 | 6.00 to 7.00 |  | 
15 | Brc1n[nH]c2ncnc(N3CCN(c4ccccn4)CC3)c12 [Entry 63, 3-bromo-4-(4-pyridin-2-ylpiperazin-1-yl)-1H-pyrazolo[3,4-d]pyrimidine] | 5.00 to 6.00 | 6.00 to 7.00 |  | 
16 | Clc1ccc(N2CCN(c3ncnc4[nH]nc(Br)c34)CC2)cc1Cl [Entry 75, 3-bromo-4-[4-(3,4-dichlorophenyl)piperazin-1-yl]-1H-pyrazolo[3,4-d]pyrimidine] | ≤ 5.00 | 6.00 to 7.00 |  | 

Row | Structure (SMILES) | pIC50 (AktK; Table 1, class symbols per key) | pIC50 (p70S6K; Table 1, class symbols per key) | pIC50 (AktK) | pIC50 (p70S6K)
17 | CCc1n[nH]c2ncnc(N3CCN(c4cc(F)cc(Br)c4Cl)CC3)c12 [Entry 114, 4-[4-(3-bromo-2-chloro-5-fluorophenyl)piperazin-1-yl]-3-ethyl-1H-pyrazolo[3,4-d]pyrimidine] | ≤ 5.00 | 6.00 to 7.00 |  | 
18 | Cc1c(OCCN2CCCC2)cc(Cl)cc1N1CCN(c2ncnc3[nH]nc(C(F)(F)F)c23)CC1 [Entry 39, 4-(4-{5-chloro-2-methyl-3-[(2-pyrrolidin-1-ylethyl)oxy]phenyl}piperazin-1-yl)-3-(trifluoromethyl)-1H-pyrazolo[3,4-d]pyrimidine] | 6.00 to 7.00 | > 7.00 |  | 
19 | Cc1ccc(C(=O)Nc2ccccc2)cc1N1CCN(c2ncnc3[nH]nc(Br)c23)C[C@@H]1C [Entry 177, 3-[(2S)-4-(3-bromo-1H-pyrazolo[3,4-d]pyrimidin-4-yl)-2-methylpiperazin-1-yl]-4-methyl-N-phenylbenzamide] | 6.00 to 7.00 | > 7.00 |  | 
20 | Cc1c(NCCN2CCCC2)cc(OCC2CC2(F)F)cc1N1CCN(c2ncnc3[nH]nc(Br)c23)CC1 (stereo not shown) [Entry 270, 3-[4-(3-bromo-1H-pyrazolo[3,4-d]pyrimidin-4-yl)piperazin-1-yl]-5-{[(2,2-difluorocyclopro-pyl)methyl]oxy}-2-methyl-N-(2-pyrrolidin-1-ylethyl)aniline] | > 7.00 | > 7.00 |  | 
21 | O=C1COc2ccc(-c3ccnc(N4CCN(c5ncnc6[nH]nc(Br)c56)CC4)n3)cc2N1 [Entry 144, 6-{2-[4-(3-bromo-1H-pyrazolo[3,4-d]pyrimidin-4-yl)piperazin-1-yl]pyrimidin-4-yl}-2H-1,4-benzoxazin-3(4H)-one] | 5.00 to 6.00 | 5.00 to 6.00 |  | 
22 | CCc1n[nH]c2ncnc(N3CCN(c4cccc(Cl)c4)C(C(=O)OC)C3)c12 (stereo not shown) [Entry 346, methyl 1-(3-chlorophenyl)-4-(3-ethyl-1H-pyrazolo[3,4-d]pyrimidin-4-yl)piperazine-2-carboxylate] |  |  | ≤ 5.00 | 5.00 to 6.00
23 | Fc1cc(NCCN2CCCC2)c(Cl)c(N2CCN(c3ncnc4[nH]nc(Br)c34)CC2)c1 [Entry 129, 3-[4-(3-bromo-1H-pyrazolo[3,4-d]pyrimidin-4-yl)piperazin-1-yl]-2-chloro-5-fluoro-N-(2-pyrrolidin-1-ylethyl)aniline] | 6.00 to 7.00 | > 7.00 |  | 
24 | CCC(CC)COc1cc(NCCN2CCCC2)c(C)c(N2CCN(c3ncnc4[nH]nc(Br)c34)CC2)c1 [Entry 207, 3-[4-(3-bromo-1H-pyrazolo[3,4-d]pyrimidin-4-yl)piperazin-1-yl]-5-[(2-ethylbutyl)oxy]-2-methyl-N-(2-pyrrolidin-1-ylethyl)aniline] | > 7.00 | > 7.00 |  | 
25 | Cc1c(NCCN2CCCC2)cc(CC[Si](C)(C)C)cc1N1CCN(c2ncnc3[nH]nc(Br)c23)CC1 [Entry 246, 3-[4-(3-bromo-1H-pyrazolo[3,4-d]pyrimidin-4-yl)piperazin-1-yl]-2-methyl-N-(2-pyrrolidin-1-ylethyl)-5-[2-(trimethylsilyl)ethyl]aniline] | > 7.00 | > 7.00 |  | 
26 | CCS(=O)(=O)c1cc(NCCN2CCCC2)c(C)c(N2CCN(c3ncnc4[nH]nc(Br)c34)CC2)c1 [Entry 260, 3-[4-(3-bromo-1H-pyrazolo[3,4-d]pyrimidin-4-yl)piperazin-1-yl]-5-(ethylsulfonyl)-2-methyl-N-(2-pyrrolidin-1-ylethyl)aniline] | > 7.00 | > 7.00 |  | 
27 | CCc1n[nH]c2ncnc(N3CCN(c4cccc(Cl)c4)C(C(=O)NC4CCN(C)CC4)C3)c12 (stereo not shown) [Entry 382, 1-(3-chlorophenyl)-4-(3-ethyl-1H-pyrazolo[3,4-d]pyrimidin-4-yl)-N-(1-methylpiperidin-4-yl)piperazine-2-carboxamide] |  |  | ≤ 5.00 | 5.00 to 6.00
28 | CCc1n[nH]c2ncnc(N3CCN(c4cc(Cl)cc(OCCN(CC)CC)c4)CC3)c12 [Entry 170, 2-({3-chloro-5-[4-(3-ethyl-1H-pyrazolo[3,4-d]pyrimidin-4-yl)piperazin-1-yl]phenyl}oxy)-N,N-diethylethanamine] | ≤ 5.00 | 6.00 to 7.00 |  | 
29 | FC(F)(F)c1cccc(N2CCN(c3ncnc4[nH]nc(Br)c34)CC2)c1 [Entry 155, 3-bromo-4-{4-[3-(trifluoromethyl)phenyl]piperazin-1-yl}-1H-pyrazolo[3,4-d]pyrimidine] | ≤ 5.00 | > 7.00 |  | 
30 | Cc1c(NCCN2CCCC2)cc(Cl)cc1N1CCN(c2ncnc3[nH]nc(C4CC4)c23)CC1 [Entry 161, 5-chloro-3-[4-(3-cyclopropyl-1H-pyrazolo[3,4-d]pyrimidin-4-yl)piperazin-1-yl]-2-methyl-N-(2-pyrrolidin-1-ylethyl)aniline] | 6.00 to 7.00 | > 7.00 |  | 
31 | Cc1c(CCCN2CCCC2)cc(Cl)cc1N1CCN(c2ncnc3[nH]nc(/C=C/C(=O)O)c23)CC1 [Entry 181, (2E)-3-(4-{4-[5-chloro-2-methyl-3-(3-pyrrolidin-1-ylpropyl)phenyl]piperazin-1-yl}-1H-pyrazolo[3,4-d]pyrimidin-3-yl)prop-2-enoic acid] | > 7.00 | > 7.00 |  | 
32 | Cc1ccc(C(=O)N(C)C)cc1N1CCN(c2ncnc3[nH]nc(Br)c23)CC1 [Entry 196, 3-[4-(3-bromo-1H-pyrazolo[3,4-d]pyrimidin-4-yl)piperazin-1-yl]-N,N,4-trimethylbenzamide] | 6.00 to 7.00 | > 7.00 |  | 
